Laboratory results from paper PMC5761210 (Journal of Pharmaceutical Analysis, 2014).
Like-named read-outs stand apart in the source and are kept apart here.

Key:
[1] = format: in vitro ADME, human; conditions: for Qmax,24 h (maximal absorption: receptor fluid + epidermis + dermis after 24 h): percentage of the applied dose
[2] = no reference given; cited from earlier work
[3] = EFSA report; cited from earlier work
Salmonella typhimurium = conditions: cited from earlier work
[4] = vehicle 50% Glycerol, mean±RSD (%)

For `CC(=O)CO` [acetol, 1-hydroxypropan-2-one], which “dose applied cumulatively found in the receptor chamber” value ([1]; after 24 h, over the investigated vehicles) is on record?
The value was 1.3–10.0%.

And the “Dm (diffusion coefficient)” value ([1]; vehicle 50% EtOH, mean±RSD (%))?
The value was 1.49±41.8 10^−4 cm^2/h.

And the “Kp (permeability coefficient)” value ([1]; vehicle 50% EtOH, mean±RSD (%))?
The value was 3.91±45.1 10^−3 cm/h.

And the Lag time ([1]; vehicle 50% EtOH, mean±RSD (%))?
The Lag time was 2.14 ± 51.8 h.

What about the “Qmax,24 h (maximal absorption: receptor fluid + epidermis + dermis after 24 h)” value (“Qmax,24 h” below) ([1]; vehicle 50% EtOH, mean±RSD (%)) of the same compound?
The value was 7.28±29.0%.

And the “Dm (diffusion coefficient)” value [1, 4]?
Its value is 0.73±22.4 10^−4 cm^2/h.

And the “Kp (permeability coefficient)” value [1, 4]?
Its value is 0.78±40.3 10^−3 cm/h.

And the Lag time [1, 4]?
The Lag time was 4.39 ± 28.7 h.

And the “Qmax,24 h” value [1, 4]?
Its value is 1.75±39.0%.

And the “Dm (diffusion coefficient)” value ([1]; vehicle 50% PG, mean±RSD (%))?
Its value is 1.07±103.0 10^−4 cm^2/h.

What about the “Kp (permeability coefficient)” value ([1]; vehicle 50% PG, mean±RSD (%)) of the same compound?
The value was 1.30±79.0 10^−3 cm/h.

And the Lag time ([1]; vehicle 50% PG, mean±RSD (%))?
Its Lag time is 5.65 ± 70.9 h.

What about the “Qmax,24 h” value ([1]; vehicle 50% PG, mean±RSD (%)) of the same compound?
Its value is 2.94±76.0%.

And the “Jss (steady-state flux)” value ([1]; vehicle H2O (pure water), 5% acetol (m/V), 500 µL infinite dose, mean±RSD (%))?
Its value is 68.3±21.2 µg/cm^2/h.

And the “Dm (diffusion coefficient)” value ([1]; vehicle H2O, mean±RSD (%))?
The value was 1.28±49.6 10^−4 cm^2/h.

What about the “Kp (permeability coefficient)” value ([1]; vehicle H2O, mean±RSD (%)) of the same compound?
Its value is 1.30±21.2 10^−3 cm/h.

What about the Lag time ([1]; vehicle H2O, mean±RSD (%)) of the same compound?
Its Lag time is 2.95 ± 71.0 h.

And the “Qmax,24 h” value ([1]; vehicle H2O, mean±RSD (%))?
Its value is 3.37±11.7%.

What about the “Kp (permeability coefficient)” value ([1]; vehicle PG (propylene glycol/water 50/50, V/V)) of the same compound?
Its value is 0.0013 cm/h.

What about the “Kp (permeability coefficient)” value ([1]; vehicle glycerol (glycerol/water 50/50, V/V)) of the same compound?
Its value is 0.000778 cm/h.

And the “Kp (permeability coefficient)” value ([1]; vehicle water)?
The value was 0.0013 cm/h.

And the “log Pow” value [2]?
Its value is −0.78.

What about the genotoxic in-vivo [3] of the same compound?
Its genotoxic in-vivo is “not likely”.

And the “Ames tests (in-vitro mutagenic properties)” value (Salmonella typhimurium)?
Its value is “positive”.
